# Experimental data as given in US20170239289A1, “TREATMENT OF INFLAMMATION, RESPIRATORY TRACT INFECTIONS AND CYSTIC FIBROSIS” (Advanced Inhalation Therapies (AIT) Ltd., priority 2014, published 2017).
# Assays:
# S. aureus (MSSA) = experiment: Example 4: bacterial and fungal sputum load; type: in vivo, Staphylococcus aureus
# Description: (§1) In addition to their standard care, subjects were administered three 30-minute inhalations per day of 160 ppm NO (with O2/air) for 10 working days (i.e., 5 days on treatment, 2 days off treatment, 5 days on treatment, for a total of 10 treatment days and 30 inhalations).
# (§2) Secondary Endpoints—Efficacy: • Comparison of FEV1 improvement before and after NO treatment Observational Endpoints: • To determine the reduction in bacterial and fungal sputum load during each week of NO treatment compared to bacterial sputum load before NO treatment • Assess the improvement of lung function indices during and after NO intermittent inhalation treatment as determined by spirometry (i.e., FVC, FEV1, FEV1/FVC, forced expiratory flow 25% to 75% (FEF 25-75)) • Evaluate C-reactive protein (CRP) levels over time • Number of subjects with study drug related bleeding at any time point
# (§3) Results of the bacterial and fungal sputum load analysis were highly variable, and due to limitations of the sampling and testing technique, must be interpreted with caution. Microbiology results were recorded from Day 1 to end of follow-up, for all samples taken during the study. In order for NO therapy to be efficient, a minimal exposure of the microbial population to NO for the whole duration of the study is required. […] Thus, data was analyzed only for cultures with positive results on Day 1. Furthermore, samples from 2 subjects (SO-01 and SO-02) were not analyzed by the central laboratory. A summary of the bacterial and fungal sputum results at Day 1 and Day 9 is presented according to subject in Table 18.
# [1] = tested on: human subjects diagnosed with, or suffering from CF; experiment: Example 1: open-label Phase 2 CF study, 160 ppm NO 30 min 3x daily, 5 days/week, 2 weeks; safety monitoring; type: in vivo
# Description: (§4) NO was administered via inhalation to nine clinically stable human subjects diagnosed with, or suffering from CF from two medical centers. Patients received three daily 30-minute treatments of 160 ppm NO with at least 3.5 hours between treatments, for 5 days per week over a two-weeks time period.
# Safety parameters, including NO and nitrogen dioxide (NO2 via NO2^−/NO3^−) concentrations, inhaled fraction of inspired oxygen (FiO2), methemoglobin level (SpMet, or “% MetHb”), and oxyhemoglobin (oxygen) saturation (SpO2 or SaO2), were continuously monitored using a noninvasive pulse-oximetry device RAD-57™ or RAD-87™ by Masimo Irvine, Calif. These devices also monitor Perfusion Index (PI), Respiration Rate (RRa), Total Hemoglobin (SpHb), Carboxyhemoglobin (SpCO), Oxygen Content (SpOC) and Pleth Variability Index (PVI®). Vital signs, including blood pressure, pulse, and respiratory rate were also closely monitored.
# mucoid P. aeruginosa [2] = experiment: Example 4: bacterial and fungal sputum load; type: in vivo
# Description: as §1, §2, §3
# Aspergillus fumigatus = experiment: Example 4: bacterial and fungal sputum load; type: in vivo
# Description: as §1, §2, §3
# Achromobacter spp. [3] = experiment: Example 4: bacterial and fungal sputum load; type: in vivo
# Description: as §1, §2, §3
# Non-Mucoid P. aeruginosa = experiment: Example 4: bacterial and fungal sputum load; type: in vivo
# Description: as §1, §2, §3
# Total P. aeruginosa = experiment: Example 4: bacterial and fungal sputum load; type: in vivo
# Description: as §1, §2, §3
# nonmucoid P. aeruginosa = experiment: Example 1: microbial density in sputum (CFU) during NO inhalation; type: in vivo; settings: Patient 4 (CFSCH04)
# Description: as §4
# (§5) Preliminary efficacy measures included determination of microbial density in sputum and measurements of forced exhaled volume at 1 second (FEV1). Inflammation associated with C-reactive protein (CRP) levels was assessed as a secondary outcome measure. Other inflammation biomarkers, such as interleukins, were also monitored (data not shown).
# (§6) Bacterial load was measured for exemplary, non-limiting selection of species that included, P. alcaligenes, methicillin-sensitive Staphylococcus aureus (MSSA), Achromobacter spp., A. fumigates, non-mucoid P. aeruginosa and mucoid P. aeruginosa.
# mucoid P. aeruginosa [4] = experiment: as above; type: in vivo; settings: Patient 4 (CFSCH04)
# Description: as §4, §5, §6
# A. fumigatus = experiment: as above; type: in vivo; settings: Patient 3 (CFSCH03)
# Description: as §4, §5, §6
# Achromobacter spp. [5] = experiment: as above; type: in vivo; settings: Patient 3 (CFSCH03)
# Description: as §4, §5, §6
# P. alcaligenes = experiment: as above; type: in vivo; settings: Patient 1 (CFSCH01), by Day 9
# Description: as §4, §5, §6
compound,measurement,setting,value
"[N]=O [NO, nitric oxide]","S. aureus (MSSA), % change from Day 1 to Day 9",S. aureus (MSSA); Subject SC-03,−100.0%
same,S. aureus (MSSA) sputum load,"S. aureus (MSSA); Subject SC-03, Day 1",29.5 CFU/mL × 10^−4
same,S. aureus (MSSA) sputum load,"S. aureus (MSSA); Subject SC-03, Day 9",0 CFU/mL × 10^−4
same,"S. aureus (MSSA), % change from Day 1 to Day 9",S. aureus (MSSA); Subject SO03,+27.6%
same,S. aureus (MSSA) sputum load,"S. aureus (MSSA); Subject SO03, Day 1",67.0 CFU/mL × 10^−4
same,S. aureus (MSSA) sputum load,"S. aureus (MSSA); Subject SO03, Day 9",85.5 CFU/mL × 10^−4
same,Average MetHb levels post treatment (mean±SD),"[1]; 9 subjects, 10 days of treatment",2.4%
same,Oxygen saturation post treatment,[1]; all 9 subjects,more than 92%
same,MetHb levels throughout the trial (safety limit),[1]; all subjects,< 5%
same,Changes in vital signs,[1]; during the study,no clinically significant changes in vital signs
same,Serious adverse events,[1]; during the study,No serious adverse events
same,"Mucoid P. aeruginosa, % change from Day 1 to Day 9",mucoid P. aeruginosa [2]; Subject SC-01,−3.7%
same,Mucoid P. aeruginosa sputum load,"mucoid P. aeruginosa [2]; Subject SC-01, Day 1","2,700 CFU/mL × 10^−4"
same,Mucoid P. aeruginosa sputum load,"mucoid P. aeruginosa [2]; Subject SC-01, Day 9","2,600 CFU/mL × 10^−4"
same,"Mucoid P. aeruginosa, % change from Day 1 to Day 9",mucoid P. aeruginosa [2]; Subject SC-05,−99.9%
same,Mucoid P. aeruginosa sputum load,"mucoid P. aeruginosa [2]; Subject SC-05, Day 1","29,000 CFU/mL × 10^−4"
same,Mucoid P. aeruginosa sputum load,"mucoid P. aeruginosa [2]; Subject SC-05, Day 9",30.0 CFU/mL × 10^−4
same,"Aspergillus fumigatus, % change from Day 1 to Day 9",Aspergillus fumigatus; Subject SC-03,−100.0%
same,Aspergillus fumigatus sputum load,"Aspergillus fumigatus; Subject SC-03, Day 1",2.00 CFU/mL × 10^−4
same,Aspergillus fumigatus sputum load,"Aspergillus fumigatus; Subject SC-03, Day 9",0 CFU/mL × 10^−4
same,"Achromobacter spp., % change from Day 1 to Day 9",Achromobacter spp. [3]; Subject SC-03,−94.3%
same,Achromobacter spp. sputum load,"Achromobacter spp. [3]; Subject SC-03, Day 1",44.1 CFU/mL × 10^−4
same,Achromobacter spp. sputum load,"Achromobacter spp. [3]; Subject SC-03, Day 9",2.50 CFU/mL × 10^−4
same,"Non-Mucoid P. aeruginosa, % change from Day 1 to Day 9",Non-Mucoid P. aeruginosa; Subject SC-02,+33.1%
same,Non-Mucoid P. aeruginosa sputum load,"Non-Mucoid P. aeruginosa; Subject SC-02, Day 1",496 CFU/mL × 10^−4
same,Non-Mucoid P. aeruginosa sputum load,"Non-Mucoid P. aeruginosa; Subject SC-02, Day 9",660 CFU/mL × 10^−4
same,"Non-Mucoid P. aeruginosa, % change from Day 1 to Day 9",Non-Mucoid P. aeruginosa; Subject SC-04,−57.9%
same,Non-Mucoid P. aeruginosa sputum load,"Non-Mucoid P. aeruginosa; Subject SC-04, Day 1","80,000 CFU/mL × 10^−4"
same,Non-Mucoid P. aeruginosa sputum load,"Non-Mucoid P. aeruginosa; Subject SC-04, Day 9","33,700 CFU/mL × 10^−4"
same,"Non-Mucoid P. aeruginosa, % change from Day 1 to Day 9",Non-Mucoid P. aeruginosa; Subject SC-05,−89.3%
same,Non-Mucoid P. aeruginosa sputum load,"Non-Mucoid P. aeruginosa; Subject SC-05, Day 1","29,200 CFU/mL × 10^−4"
same,Non-Mucoid P. aeruginosa sputum load,"Non-Mucoid P. aeruginosa; Subject SC-05, Day 9","3,110 CFU/mL × 10^−4"
same,"Total P. aeruginosa (central lab only), % change from Day 1 to Day 9",Total P. aeruginosa; Subject SC-01,−3.7%
same,"Total P. aeruginosa (including Soroka lab), % change from Day 1 to Day 9",Total P. aeruginosa; Subject SC-01,−3.7%
same,Total P. aeruginosa (central lab only) sputum load,"Total P. aeruginosa; Subject SC-01, Day 1","2,700 CFU/mL × 10^−4"
same,Total P. aeruginosa (including Soroka lab) sputum load,"Total P. aeruginosa; Subject SC-01, Day 1","2,700 CFU/mL × 10^−4"
same,Total P. aeruginosa (central lab only) sputum load,"Total P. aeruginosa; Subject SC-01, Day 9","2,600 CFU/mL × 10^−4"
same,Total P. aeruginosa (including Soroka lab) sputum load,"Total P. aeruginosa; Subject SC-01, Day 9","2,600 CFU/mL × 10^−4"
same,"Total P. aeruginosa (central lab only), % change from Day 1 to Day 9",Total P. aeruginosa; Subject SC-02,+33.1%
same,"Total P. aeruginosa (including Soroka lab), % change from Day 1 to Day 9",Total P. aeruginosa; Subject SC-02,+33.1%
same,Total P. aeruginosa (central lab only) sputum load,"Total P. aeruginosa; Subject SC-02, Day 1",496 CFU/mL × 10^−4
same,Total P. aeruginosa (including Soroka lab) sputum load,"Total P. aeruginosa; Subject SC-02, Day 1",496 CFU/mL × 10^−4
same,Total P. aeruginosa (central lab only) sputum load,"Total P. aeruginosa; Subject SC-02, Day 9",660 CFU/mL × 10^−4
same,Total P. aeruginosa (including Soroka lab) sputum load,"Total P. aeruginosa; Subject SC-02, Day 9",660 CFU/mL × 10^−4
same,"Total P. aeruginosa (central lab only), % change from Day 1 to Day 9",Total P. aeruginosa; Subject SC-04,−57.9%
same,"Total P. aeruginosa (including Soroka lab), % change from Day 1 to Day 9",Total P. aeruginosa; Subject SC-04,−57.9%
same,Total P. aeruginosa (central lab only) sputum load,"Total P. aeruginosa; Subject SC-04, Day 1","80,000 CFU/mL × 10^−4"
same,Total P. aeruginosa (including Soroka lab) sputum load,"Total P. aeruginosa; Subject SC-04, Day 1","80,000 CFU/mL × 10^−4"
same,Total P. aeruginosa (central lab only) sputum load,"Total P. aeruginosa; Subject SC-04, Day 9","33,700 CFU/mL × 10^−4"
same,Total P. aeruginosa (including Soroka lab) sputum load,"Total P. aeruginosa; Subject SC-04, Day 9","33,700 CFU/mL × 10^−4"
same,"Total P. aeruginosa (central lab only), % change from Day 1 to Day 9",Total P. aeruginosa; Subject SC-05,−90.2%
same,"Total P. aeruginosa (including Soroka lab), % change from Day 1 to Day 9",Total P. aeruginosa; Subject SC-05,−90.2%
same,Total P. aeruginosa (central lab only) sputum load,"Total P. aeruginosa; Subject SC-05, Day 1","32,100 CFU/mL × 10^−4"
same,Total P. aeruginosa (including Soroka lab) sputum load,"Total P. aeruginosa; Subject SC-05, Day 1","32,100 CFU/mL × 10^−4"
same,Total P. aeruginosa (central lab only) sputum load,"Total P. aeruginosa; Subject SC-05, Day 9","3,140 CFU/mL × 10^−4"
same,Total P. aeruginosa (including Soroka lab) sputum load,"Total P. aeruginosa; Subject SC-05, Day 9","3,140 CFU/mL × 10^−4"
same,"Total P. aeruginosa (including Soroka lab), % change from Day 1 to Day 9",Total P. aeruginosa; Subject SO01,+611%
same,Total P. aeruginosa (including Soroka lab) sputum load,"Total P. aeruginosa; Subject SO01, Day 1",450 CFU/mL × 10^−4
same,Total P. aeruginosa (including Soroka lab) sputum load,"Total P. aeruginosa; Subject SO01, Day 9","3,200 CFU/mL × 10^−4"
same,"Total P. aeruginosa (including Soroka lab), % change from Day 1 to Day 9",Total P. aeruginosa; Subject SO02,+250%
same,Total P. aeruginosa (including Soroka lab) sputum load,"Total P. aeruginosa; Subject SO02, Day 1",100 CFU/mL × 10^−4
same,Total P. aeruginosa (including Soroka lab) sputum load,"Total P. aeruginosa; Subject SO02, Day 9",350 CFU/mL × 10^−4
same,decrease in nonmucoid P. aeruginosa counts,nonmucoid P. aeruginosa,1 log
same,decrease in mucoid P. aeruginosa counts,mucoid P. aeruginosa [4],2 log
same,A. fumigatus CFU counts,A. fumigatus,elimination
same,decrease in Achromobacter spp. CFU,Achromobacter spp. [5],1 log
same,decrease in P. alcaligenes CFUs,P. alcaligenes,2 log
